Measured values published in patent publication US20060069132A1, “Azolecarboxamide herbicides” (priority 2004, published 2006).

Tests used:
[1] = tested on: cocklebur; experiment: Test B pre-/postemergence herbicide test; format: in vivo, Xanthium strumarium; settings: for Cocklebur plant response rating: postemergence, visual rating, scale 0 (no effect) to 100 (complete control)
Outline: (§1)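 Pre: seeds sown, then sprayed. Post: 1–4-leaf plants (2–18 cm) sprayed at the same time. Paddy: flooded, treated at 2-leaf stage. Formulation: non-phytotoxic solvent with surfactant. Greenhouse 13–15 days; visual 0–100 score relative to controls.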

[2] = tested on: wild oat; experiment: Test B postemergence herbicide test; format: in vivo, Avena fatua; settings: postemergence, visual rating, scale 0 (no effect) to 100 (complete control)
Outline: (§2)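 Read-out: visual comparison with controls, scored 0 to 100, where 100 means complete control and 0 no effect. Formulated chemicals were applied postemergence to plants 2–18 cm tall (1- to 4-leaf), or to flooded-paddy plants at the 2-leaf stage, then held 13 to 15 days under glass.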

[3] = tested on: large crabgrass; experiment: Test B pre-/postemergence herbicide test; format: in vivo, Digitaria sanguinalis; settings: for Crabgrass, Large plant response rating: postemergence, visual rating, scale 0 (no effect) to 100 (complete control)
Outline: (§3)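 Flooded paddy rice and barnyardgrass were treated at the 2-leaf stage; upland plantings received compound either on sown seed or on 1- to 4-leaf seedlings. All were kept 13–15 days in a greenhouse and scored visually, 0–100, relative to untreated plants.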

[4] = tested on: corn; experiment: Test B pre-/postemergence herbicide test; format: in vivo, Zea mays; settings: for Corn plant response rating: postemergence, visual rating, scale 0 (no effect) to 100 (complete control)
Outline: as §3

[5] = tested on: large crabgrass; experiment: Test A pre-/postemergence herbicide test; format: in vivo, Digitaria sanguinalis
Outline: (§4)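 Pre: seeded sandy loam, directed soil spray, compound in non-phytotoxic solvent + surfactant. Post: 1–2-leaf plants (2–10 cm), sprayed to runoff. Greenhouse ~10 d; visual injury vs untreated, 0–100 scale.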

[6] = tested on: small flower umbrella sedge; experiment: Test B flooded paddy test; format: in vivo, Cyperus difformis; settings: 1000 g ai/ha, visual rating, scale 0 to 100 (0 no effect, 100 complete control), 13 to 15 days
Outline: as §2

[7] = tested on: redroot pigweed; experiment: Test A pre-/postemergence herbicide test; format: in vivo, Amaranthus retroflexus
Outline: as §4

[8] = tested on: giant foxtail; experiment: Test B pre-/postemergence herbicide test; format: in vivo, Setaria faberi; settings: for Foxtail, Giant plant response rating: postemergence, visual rating, scale 0 (no effect) to 100 (complete control)
Outline: as §3

[9] = tested on: ducksalad; experiment: Test B flooded paddy test; format: in vivo, Heteranthera limosa; settings: 1000 g ai/ha, visual rating, scale 0 to 100 (0 no effect, 100 complete control), 13 to 15 days
Outline: as §2

[10] = tested on: blackgrass; experiment: Test B postemergence herbicide test; format: in vivo, Alopecurus myosuroides; settings: postemergence, visual rating, scale 0 (no effect) to 100 (complete control)
Outline: as §2

[11] = tested on: morningglory; experiment: Test B pre-/postemergence herbicide test; format: in vivo, Ipomoea coccinea; settings: for Morningglory plant response rating: postemergence, visual rating, scale 0 (no effect) to 100 (complete control)
Outline: as §1

[12] = tested on: giant foxtail; experiment: Test A pre-/postemergence herbicide test; format: in vivo, Setaria faberi
Outline: as §4

[13] = tested on: barnyardgrass; experiment: Test B pre-/postemergence herbicide test; format: in vivo, Echinochloa crus-galli; settings: for Barnyardgrass plant response rating: postemergence, visual rating, scale 0 (no effect) to 100 (complete control)
Outline: as §1

[14] = tested on: pigweed; experiment: Test B pre-/postemergence herbicide test; format: in vivo, Amaranthus retroflexus; settings: for Pigweed plant response rating: postemergence, visual rating, scale 0 (no effect) to 100 (complete control)
Outline: as §3

[15] = tested on: morningglory; experiment: Test A pre-/postemergence herbicide test; format: in vivo, Ipomoea spp.
Outline: as §4

[16] = tested on: Surinam grass; experiment: Test B pre-/postemergence herbicide test; format: in vivo, Urochloa decumbens; settings: for Surinam Grass plant response rating: postemergence, visual rating, scale 0 (no effect) to 100 (complete control)
Outline: as §3

[17] = tested on: velvetleaf; experiment: Test A pre-/postemergence herbicide test; format: in vivo, Abutilon theophrasti
Outline: as §4

[18] = tested on: barnyardgrass; experiment: Test A pre-/postemergence herbicide test; format: in vivo, Echinochloa crus-galli
Outline: as §4

[19] = tested on: lambsquarters; experiment: Test B pre-/postemergence herbicide test; format: in vivo, Chenopodium album; settings: for Lambsquarters plant response rating: postemergence, visual rating, scale 0 (no effect) to 100 (complete control)
Outline: as §3

[20] = tested on: wheat; experiment: Test B postemergence herbicide test; format: in vivo, Triticum aestivum; set-up: key to Wheat plant response rating: 0 = no effect, 100 = complete control; settings: postemergence, visual rating, scale 0 (no effect) to 100 (complete control)
Outline: as §2

[21] = tested on: rice; experiment: Test B flooded paddy test; format: in vivo, Oryza sativa; settings: 1000 g ai/ha, visual rating, scale 0 to 100 (0 no effect, 100 complete control), 13 to 15 days
Outline: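 After treating 2-leaf paddy plants or 2–18 cm postemergence plants (1 to 4 leaves) with formulated chemical, researchers kept them in a greenhouse for 13–15 days. Effects were judged visually versus controls: 0 indicates none, 100 total control.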

[22] = tested on: barnyardgrass; experiment: Test B flooded paddy test; format: in vivo, Echinochloa crus-galli; settings: 1000 g ai/ha, visual rating, scale 0 to 100 (0 no effect, 100 complete control), 13 to 15 days
Outline: as §2

[23] = tested on: velvetleaf; experiment: Test B pre-/postemergence herbicide test; format: in vivo, Abutilon theophrasti; settings: for Velvetleaf plant response rating: postemergence, visual rating, scale 0 (no effect) to 100 (complete control)
Outline: as §3

[24] = tested on: rice; experiment: Test B pre-/postemergence herbicide test; format: in vivo, Oryza sativa; settings: preemergence
Outline: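 Evaluation is visual, comparing treated with control plants on a scale where 0 means no effect and 100 means full control. Treatments were preemergence, or postemergence on seedlings 2–18 cm tall, and held 13–15 days in the greenhouse.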

[25] = 125 g ai/ha, 0 = no effect, 100 = complete control, preemergence
[26] = 500 g ai/ha, visual rating 0-100, 0 no effect, 100 complete control, preemergence
[27] = Postemergence, 500 g ai/ha, 0 to 100 scale, 0 no effect, 100 complete control
[28] = Postemergence, 2000 g ai/ha, 0 to 100 scale, 0 no effect, 100 complete control
[29] = Preemergence, 2000 g ai/ha, visual rating, 0 to 100 scale (0 no effect, 100 complete control)
[30] = preemergence, 500 g ai/ha, visual injury, 0 to 100 scale (0 no effect, 100 complete control)

Cc1nc(C(C)(C)C)sc1C(=O)Nc1cccc(C(=O)NCCF)c1 [Compound 200]
80: Pigweed plant response rating [7, 30] | Plant response rating, Lambsquarters [19, 26]
10: Cocklebur plant response rating ([1]; 125 g ai/ha) | Oat, Wild plant response rating ([2]; 500 g ai/ha) | Crabgrass, Large plant response rating ([3]; 500 g ai/ha) | Corn plant response rating ([4]; 125 g ai/ha) | Crabgrass, Large plant response rating [5, 27] | Plant response rating, Foxtail, Giant [8, 26] | Foxtail, Giant plant response rating ([8]; 125 g ai/ha) | Foxtail, Giant plant response rating ([8]; 500 g ai/ha) | Blackgrass plant response rating ([10]; 500 g ai/ha) | Plant response rating, Morningglory [11, 26] | Barnyardgrass plant response rating ([13]; 500 g ai/ha) | Pigweed plant response rating (0 to 100 scale) [14, 25] | Pigweed plant response rating ([14]; 125 g ai/ha) | Plant response rating, Surinam Grass [16, 26] | Surinam Grass plant response rating ([16]; 125 g ai/ha) | Velvetleaf plant response rating [17, 27] | Plant response rating, Velvetleaf [17, 28] | Barnyardgrass plant response rating [18, 27] | Velvetleaf plant response rating ([23]; 125 g ai/ha) | Plant response rating, Rice ([24]; 500 g ai/ha, visual rating 0-100, 0 no effect, 100 complete control)
35: Foxtail, Giant plant response rating [12, 30] | Morningglory plant response rating [15, 27] | Velvetleaf plant response rating [17, 29] | Plant response rating, Barnyardgrass [18, 28] | Barnyardgrass plant response rating [18, 30]
0: Cocklebur plant response rating (0 to 100 scale) [1, 25] | Plant response rating, Cocklebur [1, 26] | Oat, Wild plant response rating ([2]; 125 g ai/ha) | Crabgrass, Large plant response rating ([3]; 125 g ai/ha) | Corn plant response rating (0 to 100 scale) [4, 25] | Plant response rating, Corn [4, 26] | Foxtail, Giant plant response rating (0 to 100 scale) [8, 25] | Ducksalad plant response rating [9] | Blackgrass plant response rating ([10]; 125 g ai/ha) | Morningglory plant response rating (0 to 100 scale) [11, 25] | Morningglory plant response rating ([11]; 125 g ai/ha) | Foxtail, Giant plant response rating [12, 27] | Barnyardgrass plant response rating (0 to 100 scale) [13, 25] | Barnyardgrass plant response rating ([13]; 125 g ai/ha) | Surinam Grass plant response rating (0 to 100 scale) [16, 25] | Wheat plant response rating ([20]; 125 g ai/ha) | Wheat plant response rating ([20]; 500 g ai/ha) | Rice plant response rating [21] | Barnyardgrass plant response rating [22] | Velvetleaf plant response rating (0 to 100 scale) [23, 25] | Rice plant response rating (0 to 100 scale) ([24]; 125 g ai/ha, 0 = no effect, 100 = complete control)
95: Pigweed plant response rating [7, 29]
90: Plant response rating, Crabgrass, Large [3, 26] | Plant response rating, Pigweed [14, 26]
45: Plant response rating, Morningglory [15, 28] | Barnyardgrass plant response rating [18, 29]
60: Plant response rating, Pigweed [7, 28] | Foxtail, Giant plant response rating [12, 29] | Morningglory plant response rating [15, 29] | Lambsquarters plant response rating ([19]; 125 g ai/ha) | Lambsquarters plant response rating ([19]; 500 g ai/ha)
75: Crabgrass, Large plant response rating [5, 29]
25: Plant response rating, Crabgrass, Large [5, 28]
15: Morningglory plant response rating [15, 30]
20: Cocklebur plant response rating ([1]; 500 g ai/ha) | Plant response rating, Foxtail, Giant [12, 28] | Plant response rating, Barnyardgrass [13, 26] | Surinam Grass plant response rating ([16]; 500 g ai/ha) | Velvetleaf plant response rating [17, 30] | Lambsquarters plant response rating (0 to 100 scale) [19, 25] | Plant response rating, Velvetleaf [23, 26]
40: Morningglory plant response rating ([11]; 500 g ai/ha) | Pigweed plant response rating ([14]; 500 g ai/ha)
50: Crabgrass, Large plant response rating (0 to 100 scale) [3, 25] | Sedge, Umbrella plant response rating [6] | Pigweed plant response rating [7, 27]
70: Crabgrass, Large plant response rating [5, 30]
30: Corn plant response rating ([4]; 500 g ai/ha) | Velvetleaf plant response rating ([23]; 500 g ai/ha)
